Measurements: patent US6339042B1, “Herbicidal N-cyclohexadienyl heteroaryloxyacetamides” (American Cyanamid Co., priority 1999, dated 2002)

Experiments:
Conditions in all cases: three weeks after treatment
Galium aparine [1] = test: Pre-emergence herbicidal evaluation, GALAP; type: in vivo
Text: (§1) The treated pots are then placed on greenhouse benches, watered and cared for in accordance with conventional greenhouse procedures.

Amaranthus tuberculatus [2] = test: Post-emergence herbicidal evaluation, AMATA; type: in vivo
Triticum aestivum [3] = test: Pre-emergence herbicidal evaluation, TRZAW; type: in vivo
Text: as §1

Alopecurus myosuroides [4] = test: Pre-emergence herbicidal evaluation, ALOMY; type: in vivo
Text: as §1

Alopecurus myosuroides [5] = test: Post-emergence herbicidal evaluation, ALOMY
Method: (§2) The compounds of the invention are tested for pre- and post-emergence herbicidal activity.
(§3) Each pot is examined three weeks after treatment and phytotoxicity is assessed according to the rating system set forth below.
(§4) These acetone solutions are diluted with water and the resulting formulations applied at dosage levels equivalent of about 0.4 to 0.1 kg per hectare of test compound per pot. After spraying the plants are placed on greenhouse benches and are cared for in the usual manner, commensurate with conventional greenhouse practices.

Echinochloa crus-galli [6] = test: Post-emergence herbicidal evaluation, ECHCG
Lolium perenne [7] = test: Post-emergence herbicidal evaluation, LOLPE
Method: as §3, §4

Zea mays [8] = test: Post-emergence herbicidal evaluation, ZEAMX
Galium aparine [9] = test: Post-emergence herbicidal evaluation, GALAP
Glycine max [10] = test: Pre-emergence herbicidal evaluation, GLXMA; type: in vivo
Text: as §1

Setaria viridis [11] = test: Pre-emergence herbicidal evaluation, SETVI; type: in vivo
Text: as §1

Setaria viridis [12] = test: Post-emergence herbicidal evaluation, SETVI
Method: as §2, §3, §4

Hordeum vulgare [13] = test: Post-emergence herbicidal evaluation, HORVW
Method: as §3, §4

Apera spica venti [14] = test: Pre-emergence herbicidal evaluation, APESV; type: in vivo
Text: as §1

Echinochloa crus-galli [15] = test: Pre-emergence herbicidal evaluation, ECHCG; type: in vivo
Text: as §1

Triticum aestivum [16] = test: Post-emergence herbicidal evaluation, TRZAW
Method: as §3, §4

Hordeum vulgare [17] = test: Pre-emergence herbicidal evaluation, HORVW; type: in vivo
Text: as §1

Oryza sativum [18] = test: Pre-emergence herbicidal evaluation, ORYSA; type: in vivo
Text: as §1

Apera spica venti [19] = test: Post-emergence herbicidal evaluation, APESV
Zea mays [20] = test: Pre-emergence herbicidal evaluation, ZEAMX; type: in vivo
Text: as §1

Oryza sativum [21] = test: Post-emergence herbicidal evaluation, ORYSA
Method: as §2, §3, §4

Amaranthus tuberculatus [22] = test: Pre-emergence herbicidal evaluation, AMATA; type: in vivo
Text: as §1

Glycine max [23] = test: Post-emergence herbicidal evaluation, GLXMA
Method: as §3, §4

Lolium perenne [24] = test: Pre-emergence herbicidal evaluation, LOLPE; type: in vivo
Text: as §1

CCN(C(=O)COc1nc2ccccc2o1)C1=CC(C)(C)CC(C)=C1 [Example 2] was tested, and the “phytotoxicity rating GALAP” value (Galium aparine [1]; 0.100 kg/ha) was 0 (0 - No effect), the “phytotoxicity rating GALAP” value (Galium aparine [1]; 0.200 kg/ha) was 0 (0 - No effect) and the “phytotoxicity rating GALAP” value (Galium aparine [1]; 0.400 kg/ha) was 0 (0 - No effect). For the same molecule, the “phytotoxicity rating GALAP” value (Galium aparine [1]; 0.800 kg/ha) was 0 (0 - No effect), the “phytotoxicity rating AMATA” value (Amaranthus tuberculatus [2]; 0.100 kg/ha) was 5 (5 - Definite injury) and the “phytotoxicity rating AMATA” value (Amaranthus tuberculatus [2]; 0.200 kg/ha) was 6 (6 - Herbicidal effect). The “phytotoxicity rating AMATA” value (Amaranthus tuberculatus [2]; 0.400 kg/ha) was 6 (6 - Herbicidal effect), the “phytotoxicity rating TRZAW” value (Triticum aestivum [3]; 0.100 kg/ha) was 0 (0 - No effect) and the “phytotoxicity rating TRZAW” value (Triticum aestivum [3]; 0.200 kg/ha) was 0 (0 - No effect). For the same molecule, the “phytotoxicity rating TRZAW” value (Triticum aestivum [3]; 0.400 kg/ha) was 2 (2 - Slight effect), the “phytotoxicity rating TRZAW” value (Triticum aestivum [3]; 0.800 kg/ha) was 2 (2 - Slight effect) and the “phytotoxicity rating ALOMY” value (Alopecurus myosuroides [4]; 0.100 kg/ha) was 1 (1 - Trace effect). The “phytotoxicity rating ALOMY” value (Alopecurus myosuroides [4]; 0.200 kg/ha) was 5 (5 - Definite injury), the “phytotoxicity rating ALOMY” value (Alopecurus myosuroides [4]; 0.400 kg/ha) was 6 (6 - Herbicidal effect) and the “phytotoxicity rating ALOMY” value (Alopecurus myosuroides [4]; 0.800 kg/ha) was 6 (6 - Herbicidal effect). The “phytotoxicity rating ALOMY” value (Alopecurus myosuroides [5]; 0.100 kg/ha) was 0 (0 - No effect), the “phytotoxicity rating ALOMY” value (Alopecurus myosuroides [5]; 0.200 kg/ha) was 4 (4 - Injury) and the “phytotoxicity rating ALOMY” value (Alopecurus myosuroides [5]; 0.400 kg/ha) was 7 (7 - Good herbicidal effect). For the same molecule, the “phytotoxicity rating ECHCG” value (Echinochloa crus-galli [6]; 0.100 kg/ha) was 1 (1 - Trace effect), the “phytotoxicity rating ECHCG” value (Echinochloa crus-galli [6]; 0.200 kg/ha) was 2 (2 - Slight effect) and the “phytotoxicity rating ECHCG” value (Echinochloa crus-galli [6]; 0.400 kg/ha) was 8 (8 - Approaching complete kill). The “phytotoxicity rating LOLPE” value (Lolium perenne [7]; 0.100 kg/ha) was 5 (5 - Definite injury), the “phytotoxicity rating LOLPE” value (Lolium perenne [7]; 0.200 kg/ha) was 7 (7 - Good herbicidal effect) and the “phytotoxicity rating LOLPE” value (Lolium perenne [7]; 0.400 kg/ha) was 8 (8 - Approaching complete kill). The “phytotoxicity rating ZEAMX” value (Zea mays [8]; 0.100 kg/ha) was 0 (0 - No effect), the “phytotoxicity rating ZEAMX” value (Zea mays [8]; 0.200 kg/ha) was 0 (0 - No effect) and the “phytotoxicity rating ZEAMX” value (Zea mays [8]; 0.400 kg/ha) was 0 (0 - No effect). The “phytotoxicity rating GALAP” value (Galium aparine [9]; 0.100 kg/ha) was 0 (0 - No effect), the “phytotoxicity rating GALAP” value (Galium aparine [9]; 0.200 kg/ha) was 2 (2 - Slight effect) and the “phytotoxicity rating GALAP” value (Galium aparine [9]; 0.400 kg/ha) was 3 (3 - Moderate effect). The “phytotoxicity rating GLXMA” value (Glycine max [10]; 0.100 kg/ha) was 0 (0 - No effect), the “phytotoxicity rating GLXMA” value (Glycine max [10]; 0.200 kg/ha) was 0 (0 - No effect) and the “phytotoxicity rating GLXMA” value (Glycine max [10]; 0.400 kg/ha) was 0 (0 - No effect). The “phytotoxicity rating GLXMA” value (Glycine max [10]; 0.800 kg/ha) was 0 (0 - No effect), the “phytotoxicity rating SETVI” value (Setaria viridis [11]; 0.100 kg/ha) was 1 (1 - Trace effect) and the “phytotoxicity rating SETVI” value (Setaria viridis [11]; 0.200 kg/ha) was 4 (4 - Injury). For the same molecule, the “phytotoxicity rating SETVI” value (Setaria viridis [11]; 0.400 kg/ha) was 7 (7 - Good herbicidal effect), the “phytotoxicity rating SETVI” value (Setaria viridis [11]; 0.800 kg/ha) was 8 (8 - Approaching complete kill) and the “phytotoxicity rating SETVI” value (Setaria viridis [12]; 0.100 kg/ha) was 0 (0 - No effect). The “phytotoxicity rating SETVI” value (Setaria viridis [12]; 0.200 kg/ha) was 2 (2 - Slight effect), the “phytotoxicity rating SETVI” value (Setaria viridis [12]; 0.400 kg/ha) was 6 (6 - Herbicidal effect) and the “phytotoxicity rating HORVW” value (Hordeum vulgare [13]; 0.100 kg/ha) was 1 (1 - Trace effect). For the same molecule, the “phytotoxicity rating HORVW” value (Hordeum vulgare [13]; 0.200 kg/ha) was 2 (2 - Slight effect), the “phytotoxicity rating HORVW” value (Hordeum vulgare [13]; 0.400 kg/ha) was 2 (2 - Slight effect) and the “phytotoxicity rating APESV” value (Apera spica venti [14]; 0.100 kg/ha) was 1 (1 - Trace effect). For the same molecule, the “phytotoxicity rating APESV” value (Apera spica venti [14]; 0.200 kg/ha) was 6 (6 - Herbicidal effect), the “phytotoxicity rating APESV” value (Apera spica venti [14]; 0.400 kg/ha) was 9 (9 - Complete kill) and the “phytotoxicity rating APESV” value (Apera spica venti [14]; 0.800 kg/ha) was 9 (9 - Complete kill). The “phytotoxicity rating ECHCG” value (Echinochloa crus-galli [15]; 0.100 kg/ha) was 3 (3 - Moderate effect), the “phytotoxicity rating ECHCG” value (Echinochloa crus-galli [15]; 0.200 kg/ha) was 5 (5 - Definite injury) and the “phytotoxicity rating ECHCG” value (Echinochloa crus-galli [15]; 0.400 kg/ha) was 8 (8 - Approaching complete kill). The “phytotoxicity rating ECHCG” value (Echinochloa crus-galli [15]; 0.800 kg/ha) was 9 (9 - Complete kill), the “phytotoxicity rating TRZAW” value (Triticum aestivum [16]; 0.100 kg/ha) was 0 (0 - No effect) and the “phytotoxicity rating TRZAW” value (Triticum aestivum [16]; 0.200 kg/ha) was 0 (0 - No effect). For the same molecule, the “phytotoxicity rating TRZAW” value (Triticum aestivum [16]; 0.400 kg/ha) was 1 (1 - Trace effect), the “phytotoxicity rating HORVW” value (Hordeum vulgare [17]; 0.100 kg/ha) was 0 (0 - No effect) and the “phytotoxicity rating HORVW” value (Hordeum vulgare [17]; 0.200 kg/ha) was 2 (2 - Slight effect). For the same molecule, the “phytotoxicity rating HORVW” value (Hordeum vulgare [17]; 0.400 kg/ha) was 2 (2 - Slight effect), the “phytotoxicity rating HORVW” value (Hordeum vulgare [17]; 0.800 kg/ha) was 3 (3 - Moderate effect) and the “phytotoxicity rating ORYSA” value (Oryza sativum [18]; 0.100 kg/ha) was 0 (0 - No effect). The “phytotoxicity rating ORYSA” value (Oryza sativum [18]; 0.200 kg/ha) was 0 (0 - No effect), the “phytotoxicity rating ORYSA” value (Oryza sativum [18]; 0.400 kg/ha) was 0 (0 - No effect) and the “phytotoxicity rating ORYSA” value (Oryza sativum [18]; 0.800 kg/ha) was 2 (2 - Slight effect). The “phytotoxicity rating APESV” value (Apera spica venti [19]; 0.100 kg/ha) was 6 (6 - Herbicidal effect), the “phytotoxicity rating APESV” value (Apera spica venti [19]; 0.200 kg/ha) was 7 (7 - Good herbicidal effect) and the “phytotoxicity rating APESV” value (Apera spica venti [19]; 0.400 kg/ha) was 7 (7 - Good herbicidal effect). The “phytotoxicity rating ZEAMX” value (Zea mays [20]; 0.100 kg/ha) was 0 (0 - No effect), the “phytotoxicity rating ZEAMX” value (Zea mays [20]; 0.200 kg/ha) was 0 (0 - No effect) and the “phytotoxicity rating ZEAMX” value (Zea mays [20]; 0.400 kg/ha) was 0 (0 - No effect). For the same molecule, the “phytotoxicity rating ZEAMX” value (Zea mays [20]; 0.800 kg/ha) was 1 (1 - Trace effect), the “phytotoxicity rating ORYSA” value (Oryza sativum [21]; 0.100 kg/ha) was 0 (0 - No effect) and the “phytotoxicity rating ORYSA” value (Oryza sativum [21]; 0.200 kg/ha) was 0 (0 - No effect). For the same molecule, the “phytotoxicity rating ORYSA” value (Oryza sativum [21]; 0.400 kg/ha) was 1 (1 - Trace effect), the “phytotoxicity rating AMATA” value (Amaranthus tuberculatus [22]; 0.100 kg/ha) was 2 (2 - Slight effect) and the “phytotoxicity rating AMATA” value (Amaranthus tuberculatus [22]; 0.200 kg/ha) was 6 (6 - Herbicidal effect). For the same molecule, the “phytotoxicity rating AMATA” value (Amaranthus tuberculatus [22]; 0.400 kg/ha) was 8 (8 - Approaching complete kill), the “phytotoxicity rating AMATA” value (Amaranthus tuberculatus [22]; 0.800 kg/ha) was 8 (8 - Approaching complete kill) and the “phytotoxicity rating GLXMA” value (Glycine max [23]; 0.100 kg/ha) was 5 (5 - Definite injury). The “phytotoxicity rating GLXMA” value (Glycine max [23]; 0.200 kg/ha) was 7 (7 - Good herbicidal effect), the “phytotoxicity rating GLXMA” value (Glycine max [23]; 0.400 kg/ha) was 7 (7 - Good herbicidal effect) and the “phytotoxicity rating LOLPE” value (Lolium perenne [24]; 0.100 kg/ha) was 0 (0 - No effect). The “phytotoxicity rating LOLPE” value (Lolium perenne [24]; 0.200 kg/ha) was 2 (2 - Slight effect), the “phytotoxicity rating LOLPE” value (Lolium perenne [24]; 0.400 kg/ha) was 8 (8 - Approaching complete kill) and the “phytotoxicity rating LOLPE” value (Lolium perenne [24]; 0.800 kg/ha) was 9 (9 - Complete kill).
